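Results reflect a 48-hour exposure of cells in 96-well plates to compound at five concentrations. GI50 = concentration required for 50% inhibition of growth. TGI is the concentration that stops growth completely.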
Key:
Experiment in all cases: growth of human tumour cells (NCI), 48 h
786-0 renal = test system: 786-0 renal
A498 renal = test system: A498 renal
A549 NSCLC = test system: A549 NSCLC
ACHN renal = test system: ACHN renal
BT-549 breast = test system: BT-549 breast
CAKI-1 renal = test system: CAKI-1 renal
CCRF-CEM leukemia = test system: CCRF-CEM leukemia
COLO 205 colon = test system: COLO 205 colon
DU-145 prostate = test system: DU-145 prostate
EKVX NSCLC = test system: EKVX NSCLC
HCC-2998 colon = test system: HCC-2998 colon
HCT-116 colon = test system: HCT-116 colon
HCT-15 colon = test system: HCT-15 colon
HL-60(TB) leukemia = test system: HL-60(TB) leukemia
HOP-62 NSCLC = test system: HOP-62 NSCLC
HOP-92 NSCLC = test system: HOP-92 NSCLC
HS 578T breast = test system: HS 578T breast
HT29 colon = test system: HT29 colon
IGROV1 ovarian = test system: IGROV1 ovarian
K-562 leukemia = test system: K-562 leukemia
KM12 colon = test system: KM12 colon
LOX IMVI melanoma = test system: LOX IMVI melanoma
M14 melanoma = test system: M14 melanoma
MALME-3M melanoma = test system: MALME-3M melanoma
MCF7 breast = test system: MCF7 breast
MDA-MB-231 breast = test system: MDA-MB-231 breast
MDA-MB-435 = test system: MDA-MB-435
MOLT-4 leukemia = test system: MOLT-4 leukemia
NCI-H226 lung = test system: NCI-H226 lung
NCI-H23 lung = test system: NCI-H23 lung
NCI-H460 lung = test system: NCI-H460 lung
NCI-H522 lung = test system: NCI-H522 lung
NCI/ADR-RES ovarian = test system: NCI/ADR-RES ovarian
OVCAR-3 ovarian = test system: OVCAR-3 ovarian
OVCAR-4 ovarian = test system: OVCAR-4 ovarian
OVCAR-5 ovarian = test system: OVCAR-5 ovarian
OVCAR-8 ovarian = test system: OVCAR-8 ovarian
PC-3 prostate = test system: PC-3 prostate
RXF 393 renal = test system: RXF 393 renal
SF-268 CNS = test system: SF-268 CNS
SF-295 CNS = test system: SF-295 CNS
SF-539 CNS = test system: SF-539 CNS
SK-MEL-2 melanoma = test system: SK-MEL-2 melanoma
SK-MEL-28 melanoma = test system: SK-MEL-28 melanoma
SK-MEL-5 melanoma = test system: SK-MEL-5 melanoma
SK-OV-3 ovarian = test system: SK-OV-3 ovarian
SN12C renal = test system: SN12C renal
SNB-19 CNS = test system: SNB-19 CNS
SNB-75 CNS = test system: SNB-75 CNS
SR leukemia = test system: SR leukemia
SW-620 colon = test system: SW-620 colon
T-47D breast = test system: T-47D breast
TK-10 renal = test system: TK-10 renal
U251 CNS = test system: U251 CNS
UACC-257 melanoma = test system: UACC-257 melanoma
UACC-62 melanoma = test system: UACC-62 melanoma
UO-31 renal = test system: UO-31 renal
RPMI-8226 leukemia = test system: RPMI-8226 leukemia

`CC1(C)CC[C@]2(C(N)=O)CC[C@]3(C)C(=CC[C@@H]4[C@@]5(C)C/C(=C/c6cccnc6)C(=O)C(C)(C)[C@@H]5CC[C@]43C)[C@@H]2C1` gave a GI50 (786-0 renal) of 3.85 µM, a TGI (786-0 renal) of 30.5 µM and a GI50 (A498 renal) of 2.06 µM. It also gave a TGI (A498 renal) of 4.06 µM, a GI50 (A549 NSCLC) of 3.31 µM and a TGI (A549 NSCLC) of over 100 µM. For the same compound, the GI50 (ACHN renal) was 3.49 µM, the TGI (ACHN renal) was 13.6 µM and the GI50 (BT-549 breast) was 2.61 µM. The TGI (BT-549 breast) was 6.83 µM, the GI50 (CAKI-1 renal) was 2.92 µM and the TGI (CAKI-1 renal) was 13 µM. For the same compound, the GI50 (CCRF-CEM leukemia) was 2.54 µM, the TGI (CCRF-CEM leukemia) was 7.73 µM and the GI50 (COLO 205 colon) was 1.86 µM. It also gave a TGI (COLO 205 colon) of 3.76 µM, a GI50 (DU-145 prostate) of 3.52 µM and a TGI (DU-145 prostate) of 16.5 µM. The GI50 (EKVX NSCLC) was 3.44 µM, the TGI (EKVX NSCLC) was over 100 µM and the GI50 (HCC-2998 colon) was 1.71 µM. It also gave a TGI (HCC-2998 colon) of 3.34 µM, a GI50 (HCT-116 colon) of 1.8 µM and a TGI (HCT-116 colon) of 3.68 µM. For the same compound, the GI50 (HCT-15 colon) was 2.09 µM, the TGI (HCT-15 colon) was 4.31 µM and the GI50 (HL-60(TB) leukemia) was 2.04 µM. The TGI (HL-60(TB) leukemia) was 4.55 µM, the GI50 (HOP-62 NSCLC) was 2.84 µM and the TGI (HOP-62 NSCLC) was 10.1 µM. For the same compound, the GI50 (HOP-92 NSCLC) was 2.66 µM, the TGI (HOP-92 NSCLC) was 8.7 µM and the GI50 (HS 578T breast) was 5.93 µM. For the same compound, the TGI (HS 578T breast) was over 100 µM, the GI50 (HT29 colon) was 2.1 µM and the TGI (HT29 colon) was 4.56 µM. The GI50 (IGROV1 ovarian) was 3.62 µM, the TGI (IGROV1 ovarian) was 73 µM and the GI50 (K-562 leukemia) was 2.4 µM. It also gave a TGI (K-562 leukemia) of 7.11 µM, a GI50 (KM12 colon) of 2.28 µM and a TGI (KM12 colon) of 5.72 µM. For the same compound, the GI50 (LOX IMVI melanoma) was 1.71 µM, the TGI (LOX IMVI melanoma) was 3.24 µM and the GI50 (M14 melanoma) was 3.38 µM. The TGI (M14 melanoma) was 10.9 µM, the GI50 (MALME-3M melanoma) was 1.9 µM and the TGI (MALME-3M melanoma) was 4.05 µM. The GI50 (MCF7 breast) was 2.71 µM, the TGI (MCF7 breast) was 13.7 µM and the GI50 (MDA-MB-231 breast) was 3.8 µM. For the same compound, the TGI (MDA-MB-231 breast) was 22.3 µM, the GI50 (MDA-MB-435) was 3.15 µM and the TGI (MDA-MB-435) was 11.2 µM. For the same compound, the GI50 (MOLT-4 leukemia) was 2.01 µM, the TGI (MOLT-4 leukemia) was 6.3 µM and the GI50 (NCI-H226 lung) was 2.09 µM. The TGI (NCI-H226 lung) was 5.78 µM, the GI50 (NCI-H23 lung) was 3.31 µM and the TGI (NCI-H23 lung) was over 100 µM. For the same compound, the GI50 (NCI-H460 lung) was 2.2 µM, the TGI (NCI-H460 lung) was 5.33 µM and the GI50 (NCI-H522 lung) was 2.43 µM. For the same compound, the TGI (NCI-H522 lung) was 8.11 µM, the GI50 (NCI/ADR-RES ovarian) was 2.71 µM and the TGI (NCI/ADR-RES ovarian) was 8.96 µM. The GI50 (OVCAR-3 ovarian) was 1.86 µM, the TGI (OVCAR-3 ovarian) was 3.53 µM and the GI50 (OVCAR-4 ovarian) was 7.1 µM. For the same compound, the TGI (OVCAR-4 ovarian) was over 100 µM, the GI50 (OVCAR-5 ovarian) was 1.93 µM and the TGI (OVCAR-5 ovarian) was 4.16 µM. It also gave a GI50 (OVCAR-8 ovarian) of 3.69 µM, a TGI (OVCAR-8 ovarian) of over 100 µM and a GI50 (PC-3 prostate) of 2.56 µM. For the same compound, the TGI (PC-3 prostate) was 13.4 µM, the GI50 (RXF 393 renal) was 1.67 µM and the TGI (RXF 393 renal) was 3.3 µM. For the same compound, the GI50 (SF-268 CNS) was 3.8 µM, the TGI (SF-268 CNS) was 18 µM and the GI50 (SF-295 CNS) was 3.16 µM. It also gave a TGI (SF-295 CNS) of 11.2 µM, a GI50 (SF-539 CNS) of 1.97 µM and a TGI (SF-539 CNS) of 3.9 µM. For the same compound, the GI50 (SK-MEL-2 melanoma) was 2.22 µM, the TGI (SK-MEL-2 melanoma) was 4.99 µM and the GI50 (SK-MEL-28 melanoma) was 2.26 µM. For the same compound, the TGI (SK-MEL-28 melanoma) was 4.71 µM, the GI50 (SK-MEL-5 melanoma) was 1.81 µM and the TGI (SK-MEL-5 melanoma) was 3.33 µM. The GI50 (SK-OV-3 ovarian) was 3.95 µM, the TGI (SK-OV-3 ovarian) was over 100 µM and the GI50 (SN12C renal) was 2.31 µM. For the same compound, the TGI (SN12C renal) was 5.24 µM, the GI50 (SNB-19 CNS) was 4.03 µM and the TGI (SNB-19 CNS) was 16.5 µM. The GI50 (SNB-75 CNS) was 9.92 µM, the TGI (SNB-75 CNS) was over 100 µM and the GI50 (SR leukemia) was 2.34 µM. The TGI (SR leukemia) was 7.14 µM, the GI50 (SW-620 colon) was 3 µM and the TGI (SW-620 colon) was over 100 µM. It also gave a GI50 (T-47D breast) of 2.66 µM, a TGI (T-47D breast) of 11.4 µM and a GI50 (TK-10 renal) of 4.05 µM. For the same compound, the TGI (TK-10 renal) was 30.2 µM, the GI50 (U251 CNS) was 3.19 µM and the TGI (U251 CNS) was 11.2 µM. The GI50 (UACC-257 melanoma) was 3.2 µM, the TGI (UACC-257 melanoma) was 12.1 µM and the GI50 (UACC-62 melanoma) was 2.21 µM. The TGI (UACC-62 melanoma) was 5.13 µM, the GI50 (UO-31 renal) was 2.28 µM and the TGI (UO-31 renal) was 6.83 µM.

In the case of `COc1nc(Cl)nc(Cl)c1Cl` (tested in a mixture with another compound), the TGI (786-0 renal) was over 46.7 µM, the TGI (A498 renal) was 37.4 µM and the TGI (A549 NSCLC) was over 66 µM. The TGI (ACHN renal) was 17.6 µM, the TGI (BT-549 breast) was 22.5 µM and the TGI (CAKI-1 renal) was 0.194 µM. For the same compound, the TGI (CCRF-CEM leukemia) was 12.1 µM, the TGI (COLO 205 colon) was 26.8 µM and the TGI (DU-145 prostate) was 15.5 µM. The TGI (EKVX NSCLC) was 1.4 µM, the TGI (HCC-2998 colon) was 0.672 µM and the TGI (HCT-116 colon) was 19.5 µM. The TGI (HCT-15 colon) was 18.7 µM, the TGI (HOP-62 NSCLC) was 10.3 µM and the TGI (HOP-92 NSCLC) was 14.9 µM. For the same compound, the TGI (HS 578T breast) was over 100 µM, the TGI (HT29 colon) was 17.9 µM and the TGI (IGROV1 ovarian) was 26.2 µM. The TGI (K-562 leukemia) was 23.8 µM, the TGI (LOX IMVI melanoma) was 12.8 µM and the TGI (M14 melanoma) was 27.6 µM. The TGI (MALME-3M melanoma) was 47.3 µM, the TGI (MCF7 breast) was 24.2 µM and the TGI (MDA-MB-231 breast) was over 39.1 µM. It also gave a TGI (MDA-MB-435) of over 36.3 µM, a TGI (MOLT-4 leukemia) of 10.1 µM and a TGI (NCI-H226 lung) of 77 µM. For the same compound, the TGI (NCI-H23 lung) was 20.8 µM, the TGI (NCI-H460 lung) was 12.1 µM and the TGI (NCI-H522 lung) was 1.55 µM. For the same compound, the TGI (NCI/ADR-RES ovarian) was over 27.7 µM, the TGI (OVCAR-3 ovarian) was 12.4 µM and the TGI (OVCAR-4 ovarian) was 14.1 µM. For the same compound, the TGI (OVCAR-5 ovarian) was 49.9 µM, the TGI (OVCAR-8 ovarian) was over 30.8 µM and the TGI (PC-3 prostate) was 26 µM. The TGI (RPMI-8226 leukemia) was 5.61 µM, the TGI (RXF 393 renal) was 31.7 µM and the TGI (SF-268 CNS) was over 31.7 µM. The TGI (SF-295 CNS) was 36.3 µM, the TGI (SF-539 CNS) was 21.6 µM and the TGI (SK-MEL-2 melanoma) was 22.6 µM. It also gave a TGI (SK-MEL-28 melanoma) of 62.9 µM, a TGI (SK-MEL-5 melanoma) of 31.5 µM and a TGI (SK-OV-3 ovarian) of 32.7 µM. The TGI (SN12C renal) was 51.6 µM, the TGI (SNB-19 CNS) was 18.5 µM and the TGI (SNB-75 CNS) was over 61.4 µM. For the same compound, the TGI (SR leukemia) was 4.65 µM, the TGI (SW-620 colon) was 20.8 µM and the TGI (T-47D breast) was 44.4 µM. It also gave a TGI (TK-10 renal) of 19 µM, a TGI (U251 CNS) of 23 µM and a TGI (UACC-257 melanoma) of 12 µM. For the same compound, the TGI (UACC-62 melanoma) was 28.6 µM and the TGI (UO-31 renal) was 1.94 µM.
